Data: ChEMBL document CHEMBL3046894, “Synthesis and Herbicidal Activity of Pyrimidinyl Salicylic and Thiosalicylic Acids” (J Pestic Sci, 1996)
Calls of active or inactive are those of the source.

Legend:
Chenopodium album [1] = experiment: Post-emergence herbicidal activity against Chenopodium album assessed as growth inhibition at 25 g a.i/10 a applied 11 days after germination as foliar spray; type: functional, organism-based
Amaranthus retroflexus [2] = experiment: Pre-emergence herbicidal activity against Amaranthus retroflexus assessed as mortality per 10 acre; type: functional
Persicaria nodosa [3] = experiment: Post-emergence herbicidal activity against Persicaria nodosa assessed as growth inhibition at 25 g a.i/10 a applied 11 days after germination as foliar spray; type: functional, organism-based
Xanthium strumarium [4] = experiment: Post-emergence herbicidal activity against Xanthium strumarium (cocklebur) assessed as mortality at 1.6 g a.i/10 a applied 11 days after germination as foliar spray; type: functional; settings: 264 h
Digitaria sanguinalis [5] = experiment: Pre-emergence herbicidal activity against Digitaria sanguinalis (hairy crabgrass) assessed as growth inhibition at 25 g a.i/10 a; type: functional, organism-based
Xanthium strumarium [6] = experiment: Post-emergence herbicidal activity against Xanthium strumarium (cocklebur) assessed as mortality per 10 acre; type: functional
Ipomoea lacunosa [7] = experiment: Post-emergence herbicidal activity against Ipomoea lacunosa assessed as mortality at 1.6 g a.i/10 a applied 11 days after germination as foliar spray; type: functional; settings: 264 h
Zea mays [8] = experiment: Pre-emergence phytotoxicity against Zea mays (maize) assessed as mortality at 6.3 g a.i/10 a; type: organism-based; settings: in vivo, other
Gossypium hirsutum [9] = experiment: Post-emergence phytotoxicity against Gossypium hirsutum (cotton) assessed as mortality per 10 acre; type: organism-based; settings: in vivo
Ipomoea lacunosa [10] = experiment: Pre-emergence herbicidal activity against Ipomoea lacunosa assessed as mortality at 6.3 g a.i/10 a; type: functional; settings: Ipomoea lacunosa, pre-emergence
Xanthium strumarium [11] = experiment: Pre-emergence herbicidal activity against Xanthium strumarium (cocklebur) assessed as mortality per 10 acre; type: functional
Digitaria sanguinalis [12] = experiment: Post-emergence herbicidal activity against Digitaria sanguinalis (hairy crabgrass) assessed as growth inhibition at 25 g a.i/10 a applied 11 days after germination as foliar spray; type: functional, organism-based
Persicaria nodosa [13] = experiment: Pre-emergence herbicidal activity against Persicaria nodosa assessed as growth inhibition at 25 g a.i/10 a; type: functional, organism-based
Echinochloa crus-galli [14] = experiment: Post-emergence herbicidal activity against Echinochloa crus-galli (barnyard grass) assessed as growth inhibition at 25 g a.i/10 a applied 11 days after germination as foliar spray; type: functional, organism-based
Persicaria nodosa [15] = experiment: Post-emergence herbicidal activity against Persicaria nodosa assessed as mortality per 10 acre; type: functional
Abutilon theophrasti [16] = experiment: Pre-emergence herbicidal activity against Abutilon theophrasti (velvetleaf) assessed as mortality at 1.6 g a.i/10 a; type: functional; settings: Abutilon theophrasti, pre-emergence
Zea mays [17] = experiment: Pre-emergence phytotoxicity against Zea mays (maize) assessed as mortality at 1.6 g a.i/10 a; type: organism-based; settings: in vivo, other
Ipomoea lacunosa [18] = experiment: Pre-emergence herbicidal activity against Ipomoea lacunosa assessed as mortality at 1.6 g a.i/10 a; type: functional; settings: Ipomoea lacunosa, pre-emergence
Glycine max [19] = experiment: Pre-emergence phytotoxicity against Glycine max (soybean) assessed as mortality at 1.6 g a.i/10 a; type: organism-based; settings: in vivo, other
Xanthium strumarium [20] = experiment: Pre-emergence herbicidal activity against Xanthium strumarium (cocklebur) assessed as mortality at 1.6 g a.i/10 a; type: functional; settings: Xanthium strumarium, pre-emergence
Xanthium strumarium [21] = experiment: Pre-emergence herbicidal activity against Xanthium strumarium (cocklebur) assessed as mortality at 6.3 g a.i/10 a; type: functional; settings: Xanthium strumarium, pre-emergence
Gossypium hirsutum [22] = experiment: Pre-emergence phytotoxicity against Gossypium hirsutum (cotton) assessed as mortality at 6.3 g a.i/10 a; type: organism-based; settings: in vivo, other
Cyperus iria [23] = experiment: Post-emergence herbicidal activity against Cyperus iria assessed as growth inhibition at 25 g a.i/10 a applied 11 days after germination as foliar spray; type: functional, organism-based
Persicaria nodosa [24] = experiment: Pre-emergence herbicidal activity against Persicaria nodosa assessed as mortality per 10 acre; type: functional
Amaranthus retroflexus [25] = experiment: Post-emergence herbicidal activity against Amaranthus retroflexus assessed as growth inhibition at 25 g a.i/10 a applied 11 days after germination as foliar spray; type: functional, organism-based
Zea mays [26] = experiment: (§1) Post-emergence phytotoxicity against Zea mays (maize) assessed as mortality at 1.6 g a.i/10 a applied 11 days after germination as foliar spray; type: organism-based; settings: in vivo, other, 264 h
Glycine max [27] = experiment: Post-emergence phytotoxicity against Glycine max (soybean) assessed as mortality at 6.3 g a.i/10 a applied 11 days after germination as foliar spray; type: organism-based; settings: in vivo, other, 264 h
Echinochloa crus-galli [28] = experiment: Pre-emergence herbicidal activity against Echinochloa crus-galli (barnyard grass) assessed as growth inhibition at 25 g a.i/10 a; type: functional, organism-based
Glycine max [29] = experiment: (§2) Post-emergence phytotoxicity against Glycine max (soybean) assessed as mortality at 1.6 g a.i/10 a applied 11 days after germination as foliar spray; type: organism-based; settings: in vivo, other, 264 h
Amaranthus retroflexus [30] = experiment: Pre-emergence herbicidal activity against Amaranthus retroflexus assessed as growth inhibition at 25 g a.i/10 a; type: functional, organism-based
Gossypium hirsutum [31] = experiment: (§3) Post-emergence phytotoxicity against Gossypium hirsutum (cotton) assessed as mortality at 6.3 g a.i/10 a applied 11 days after germination as foliar spray; type: organism-based; settings: in vivo, other, 264 h
Echinochloa crus-galli [32] = experiment: Post-emergence herbicidal activity against Echinochloa crus-galli (barnyard grass) assessed as mortality per 10 acre; type: functional
Abutilon theophrasti [33] = experiment: Pre-emergence herbicidal activity against Abutilon theophrasti (velvetleaf) assessed as mortality at 6.3 g a.i/10 a; type: functional; settings: Abutilon theophrasti, pre-emergence
Ipomoea lacunosa [34] = experiment: Pre-emergence herbicidal activity against Ipomoea lacunosa assessed as mortality per 10 acre; type: functional
Cyperus iria [35] = experiment: Pre-emergence herbicidal activity against Cyperus iria assessed as growth inhibition at 25 g a.i/10 a; type: functional, organism-based
Amaranthus retroflexus [36] = experiment: Post-emergence herbicidal activity against Amaranthus retroflexus assessed as mortality per 10 acre; type: functional
Gossypium hirsutum [37] = experiment: Pre-emergence phytotoxicity against Gossypium hirsutum (cotton) assessed as mortality at 1.6 g a.i/10 a; type: organism-based; settings: in vivo, other
Glycine max [38] = experiment: (§4) Pre-emergence phytotoxicity against Glycine max (soybean) assessed as mortality at 6.3 g a.i/10 a; type: organism-based; settings: in vivo, other
Chenopodium album [39] = experiment: Pre-emergence herbicidal activity against Chenopodium album assessed as growth inhibition at 25 g a.i/10 a; type: functional, organism-based
Gossypium hirsutum [40] = experiment: Pre-emergence phytotoxicity against Gossypium hirsutum (cotton) assessed as mortality per 10 acre; type: organism-based; settings: in vivo
Echinochloa crus-galli [41] = experiment: Pre-emergence herbicidal activity against Echinochloa crus-galli (barnyard grass) assessed as mortality per 10 acre; type: functional
Ipomoea lacunosa [42] = experiment: Post-emergence herbicidal activity against Ipomoea lacunosa assessed as mortality per 10 acre; type: functional
Gossypium hirsutum [43] = experiment: Post-emergence phytotoxicity against Gossypium hirsutum (cotton) assessed as mortality at 1.6 g a.i/10 a applied 11 days after germination as foliar spray; type: organism-based; settings: in vivo, other, 264 h
Abutilon theophrasti [44] = experiment: Post-emergence herbicidal activity against Abutilon theophrasti (velvetleaf) assessed as mortality at 1.6 g a.i/10 a applied 11 days after germination as foliar spray; type: functional; settings: 264 h
Echinochloa crus-galli [45] = experiment: Post-emergence herbicidal activity against Echinochloa crus-galli (barnyard grass) assessed as mortality at 6.3 g a.i/10 a applied 11 days after germination as foliar spray; type: functional; settings: 264 h
Abutilon theophrasti [46] = experiment: Post-emergence herbicidal activity against Abutilon theophrasti (velvetleaf) assessed as mortality at 6.3 g a.i/10 a applied 11 days after germination as foliar spray; type: functional; settings: 264 h
[47] = as §1; type: organism-based; settings: in vivo, 1.6 g a.i/10 a
[48] = as §2; type: organism-based; settings: in vivo, 1.6 g a.i/10 a
[49] = as §3; type: organism-based; settings: in vivo, 6.3 g a.i/10 a
[50] = as §4; type: organism-based; settings: in vivo, 6.3 g a.i/10 a, read-out: mortality
Echinochloa crus-galli [51] = experiment: Pre-emergence herbicidal activity against Echinochloa crus-galli (barnyard grass) assessed as mortality at 6.3 g a.i/10 a; type: functional; settings: Echinochloa crus-galli, pre-emergence

COc1cc(OC)nc(Oc2ccccc2C(=O)O)n1
< 5%: mortality at 16 g/ha (Xanthium strumarium [4]) | mortality at 16 g/ha (Ipomoea lacunosa [7]) | mortality at 63 g/ha (Ipomoea lacunosa [10]) | mortality at 16 g/ha (Abutilon theophrasti [16]) | mortality at 16 g/ha (Ipomoea lacunosa [18]) | mortality at 16 g/ha (Xanthium strumarium [20]) | mortality at 63 g/ha (Xanthium strumarium [21]) | mortality at 63 g/ha (Abutilon theophrasti [33]) | mortality at 16 g/ha (Abutilon theophrasti [44])
active: growth inhibition (GI) (Chenopodium album [1]) | ED90 (Amaranthus retroflexus [2]) | growth inhibition (GI) (Persicaria nodosa [3]) | growth inhibition (GI) (Digitaria sanguinalis [5]) | growth inhibition (GI) (Digitaria sanguinalis [12]) | growth inhibition (GI) (Echinochloa crus-galli [14]) | growth inhibition (GI) (Cyperus iria [23]) | growth inhibition (GI) (Amaranthus retroflexus [25]) | growth inhibition (GI) (Echinochloa crus-galli [28]) | growth inhibition (GI) (Amaranthus retroflexus [30]) | growth inhibition (GI) (Cyperus iria [35]) | growth inhibition (GI) (Chenopodium album [39])
50 gAi: ED90 (Echinochloa crus-galli [32])
Toxic: Activity (Zea mays [8]) | Activity (Zea mays [26]) | Activity (Glycine max [27]) | Activity (Glycine max [29]) | Activity (Gossypium hirsutum [31]) | Activity (Gossypium hirsutum [43])
12 gAi: ED20 (Gossypium hirsutum [9]) | ED90 (Persicaria nodosa [15]) | ED90 (Persicaria nodosa [24]) | ED90 (Amaranthus retroflexus [36]) | ED20 (Gossypium hirsutum [40]) | ED90 (Echinochloa crus-galli [41])
>100 gAi: ED90 (Xanthium strumarium [6]) | ED90 (Xanthium strumarium [11]) | ED90 (Ipomoea lacunosa [34]) | ED90 (Ipomoea lacunosa [42])
Non-toxic: Activity (Zea mays [17]) | Activity (Glycine max [19]) | Activity (Gossypium hirsutum [22]) | Activity (Gossypium hirsutum [37]) | Activity (Glycine max [38])
inactive: growth inhibition (GI) (Persicaria nodosa [13])

COc1cc(OC)nc(Oc2cccc(OC)c2C(=O)O)n1
active: growth inhibition (GI) (Chenopodium album [1]) | growth inhibition (GI) (Persicaria nodosa [3]) | growth inhibition (GI) (Digitaria sanguinalis [5]) | growth inhibition (GI) (Digitaria sanguinalis [12]) | growth inhibition (GI) (Persicaria nodosa [13]) | growth inhibition (GI) (Echinochloa crus-galli [14]) | growth inhibition (GI) (Cyperus iria [23]) | growth inhibition (GI) (Amaranthus retroflexus [25]) | growth inhibition (GI) (Echinochloa crus-galli [28]) | growth inhibition (GI) (Amaranthus retroflexus [30]) | growth inhibition (GI) (Cyperus iria [35]) | growth inhibition (GI) (Chenopodium album [39])
Toxic: Activity (Zea mays [17]) | Activity (Gossypium hirsutum [43])
< 5%: mortality at 16 g/ha (Xanthium strumarium [4]) | mortality at 63 g/ha (Ipomoea lacunosa [10]) | mortality at 16 g/ha (Ipomoea lacunosa [18]) | mortality at 16 g/ha (Xanthium strumarium [20]) | mortality at 63 g/ha (Xanthium strumarium [21])
> 90%: mortality at 63 g/ha (Echinochloa crus-galli [45]) | mortality at 63 g/ha (Abutilon theophrasti [46]) | mortality at 264 h [47] | mortality at 264 h [48] | mortality at 264 h [49] | mortality at 63 g/ha (Abutilon theophrasti [33]) | mortality [50] | mortality at 63 g/ha (Echinochloa crus-galli [51]) | mortality at 16 g/ha (Abutilon theophrasti [44])
Non-toxic: Activity (Glycine max [19]) | Activity (Gossypium hirsutum [22])
